According to article PMC8348996, “pH-sensitive dual drug loaded janus nanoparticles by oral delivery for multimodal analgesia” (Journal of Nanobiotechnology, 2021):
Like-named read-outs stand apart in the source and are kept apart here.

Tests used:
[1] = system: Caco-2 cells; assay: Cellular uptake of FITC-αCT observed by CLSM; assay type: cell-based; conditions: 6 h incubation, 1:20 dilution
Description: (§1) Cell culture was carried out according to previously described procedures. HT-29/MTX and Caco-2 cells were seeded into 24-well plates at a density of 1 × 10^5 cells/well and 6 × 10^4 cells/well, respectively. After the cells adhered onto each well, the culture medium was discarded, and three types of samples (FITC-αCT, FITC-αCT-JNP, or FITC-αCT/Res-JNP) at 1:20 dilutions were added. After 6 h, the liquid in the wells was discarded, and the cells were washed with PBS. Each well was fixed with 4% (v/v) paraformaldehyde (0.5 mL) for 20 min, and rinsed with PBS. The cells were then incubated with 0.1% Triton X-100 for 10 min to permeabilize the cell membrane, and then incubated with DAPI for 10 min. After sealing, it was observed using CLSM.

[2] = system: HT29/MTX cells; assay: Cellular uptake of FITC-αCT observed by CLSM; assay type: cell-based; conditions: 6 h incubation, 1:20 dilution
Description: as §1

[3] = system: Caco-2 monolayers; assay: Trans-monolayer transport; assay type: in vitro ADME; conditions: Caco-2 cell model, AP to BL, 4 h
Description: (§2) Caco-2, Caco-2/HT29-MTX (7/3), and Caco-2/HT29-MTX/Raji cell models were established for the trans-monolayer transport study, as previously described. The assay was carried out from the AP side (pH 6.5) to the BL side (pH 7.4) using HBSS-HEPES buffer. […] At 0, 0.5, 1, 2, and 4 h, a certain amount of sample was taken from the basolateral compartment, and the same volume of HBSS-HEPES buffer was added.

[4] = system: Caco-2/HT29-MTX monolayers; assay: Trans-monolayer transport; assay type: in vitro ADME; conditions: Caco2-HT29/MTX cell model, AP to BL, 4 h
Description: as §2

[5] = system: Caco-2/HT29-MTX/Raji monolayers; assay: Trans-monolayer transport; assay type: in vitro ADME; conditions: Caco2-HT29/MTX-Raji cell model, AP to BL, 4 h
Description: as §2

[6] = system: Caco-2 cells; assay: Mechanism of cell uptake with specific endocytosis inhibitors (flow cytometry); assay type: cell-based; conditions: inhibitor 0.5 h, then FITC-αCT-JNP or FITC-αCT/Res-JNP 2 h; uptake without inhibitor = 100%
Description: The mechanism of cell uptake was also investigated. Caco-2 cells in the logarithmic growth phase were seeded in 6-well plates at 3 × 10^5 cells/well and incubated for 48 h. Chlorpromazine (10 μg/mL), genistein (54 μg/mL), amiloride (12 μg/mL), and nocodazole (300 μg/mL) were added to the individual wells as inhibitors and were incubated for 0.5 h. FITC-αCT-JNP and FITC-αCT/Res-JNP were then added and the wells were incubated for another 2 h. The cells were then collected using trypsin and centrifuged at 1000 rpm for 5 min. Cells without any inhibitors were used as controls. Fluorescence intensity was detected using flow cytometry (FACSJazz, BD, USA).

[7] = In vitro release behavior by dialysis in SGF (pH 1.2) and PBS (pH 7.4); assay type: physicochemical
Description: The release behavior of αCT and Res in vitro was investigated through dialysis. […] The release medium was SGJ (pH 1.2) containing 2% sodium dodecyl sulfate (w/v) and 30 mL PBS (pH 7.4). The release behavior of drugs from JNP was studied under the conditions of 37 ± 0.5 °C and a rotating speed of 100 rpm. At fixed time points (0, 0.25, 0.5, 0.75, 1.0, 1.5, and 2.0 h in SGJ; 0, 0.25, 0.5, 1.0, 2,0, 4.0, 6.0, 8.0, 10.0, 12.0, and 24.0 h in PBS), 1 mL of release medium was removed, and a blank release medium with the same volume and temperature was supplemented. The samples were filtered through a 0.22-μm microporous membrane, and the supernatant was obtained after high-speed centrifugation. The αCT and Res content were determined using HPLC. The cumulative release percentage was calculated, and a release curve was obtained. The formula for cumulative drug release is shown in the following equation, where Ct is the content of two drugs at each sampling point, V0 is the volume of the release medium, V is the sampling volume, and M0 is the initial dosage:3 Cumulative release%=Ct×V0+∑n=1t-1C×V/M0×100%

[8] = target: T1, trypsin (Sus scrofa, UniProt P00761); assay: Stability in SIF containing 0.2% trypsin (residual drug content); assay type: in vitro ADME; conditions: SIF with 0.2% trypsin, 37 °C, first hour
T1 construct: purchased Gibco Invitrogen Co. (Carlsbad, USA)
T1 sequence (P00761 9-231): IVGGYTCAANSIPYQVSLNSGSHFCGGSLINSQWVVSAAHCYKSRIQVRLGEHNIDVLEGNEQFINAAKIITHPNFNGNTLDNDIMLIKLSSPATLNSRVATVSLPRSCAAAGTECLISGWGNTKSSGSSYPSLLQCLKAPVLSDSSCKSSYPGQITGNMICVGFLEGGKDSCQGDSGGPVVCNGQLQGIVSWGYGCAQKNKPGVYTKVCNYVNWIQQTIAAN
Description: The effect of trypsin on the stability of αCT/Res-JNPs was also evaluated. αCT/Res-JNPs were centrifuged at 20,000 rpm at 4 °C for 30 min, and then resuspended in SIF. The control group was treated with αCT solution and Res solution. SIFs and trypsin (0.2%, w/v) were mixed at 37 °C for 2 h. At predetermined time points (15, 30, 60, and 120 min), HCl solution (0.1 M) was added to terminate the trypsin activity. Subsequently, dichloromethane was added to dissolve the organic phase contained in the JNP solution. The pH of the solution was then adjusted to 4.0 using hydrochloric acid to dissolve the internal aqueous phase of the JNP. Subsequently, samples were collected, and the contents of residual αCT and Res in the JNP samples were analyzed via HPLC.

[9] = in vivo; set-up: species or system SD rats
Description: SD rats fasted but drank water freely for 24 h before administration. The dosage of JNP group was 50 µg·kg ^−1 (calculated using αCT), and the other groups were converted according to the ratio of their drug loading to αCT. After intragastric administration, blood samples were collected at 0.25, 0.5, 1, 4, 8, 12, and 24 h. […] PKSolver software (V2.0, China Pharmaceutical University, China) was used to process the data, compare the blood PK parameters of each group after administration, and generate the drug concentration–time curve.

[10] = SPIP, n = 3
Description: SPIP was performed to determine the absorption and enterocytic uptake of the nanoparticles. The abdominal cavity of SD rats were opened along the midline of the abdomen to expose the intestinal tissue. The jejunum, ileum, duodenum, and colon segments were measured, and incisions were made at both ends of these segments. Both ends of the incision were intubated and fixed using ligation. The wounds were covered with an absorbent cotton soaked in normal saline and maintained at 37 °C. […] After 60 min, the jejunum, ileum, duodenum, and colon were dehydrated to create frozen Sects. (10 μm). These sections were observed using CLSM, and the fluorescence intensity of each section was quantified.

[11] = Lymphatic transport in mesenteric lymph-cannulated rats; assay type: in vivo, SD rats
Description: The methods of mesenteric lymphatic intubation were based on previous studies. Briefly, SD rats (300–350 g) were given 2 mL peanut oil via gavage 1 h before administration to induce lymphoid production. One hour later, the animals were anesthetized via intraperitoneal injection of 50 mg·kg^−1 pentobarbital sodium. The rats were placed in the supine position on the ventral side and their limbs were fixed. A midline abdominal incision (approximately 4 cm long) was made at 2/3 of the line connecting the xiphoid and pubic symphysis. […] The trunk of the mesenteric lymphatic vessels (approximately 1 cm) was then separated. A 4-mm PE-25 pipe with a PE-50 hose was connected, the joint of each pipe was fully fixed, and the pipe was filled with 1% EDTA-2Na. […] A small incision was made in the mesenteric lymphatic vessel, and the PE-25 tube end was intubated. When the lymphatic fluid completely filled the tube and drained smoothly, the intubation site was fixed. After resuscitation, the rats were allowed to drink 5% glucose solution freely and recover overnight.

[12] = system: animal models; conditions: cited from earlier work
[13] = humans and animals; cited from earlier work
[14] = PBS pH 7.4, time point not stated
[15] = rats, intragastric, 50 µg·kg^−1 as αCT, plasma FITC-αCT, n = 5
[16] = Sprague-Dawley, rat, in vivo, po

FITC-αCT: αCT labeled with fluorescein isothiocyanate (FITC)
cellular uptake of FITC-αCT (green fluorescence, CLSM) [1]: no obvious green fluorescence
cellular uptake of FITC-αCT (green fluorescence, CLSM) [2]: no obvious green fluorescence
cumulative transport of FITC-αCT [3]: approximately 3%
cumulative transport [4]: approximately 4%
cumulative transport [5]: approximately 4%

O=c1c(-c2ccc(O)cc2)coc2cc(O)cc(O)c12 [genistein]
effect of endocytosis inhibitor on uptake rate of JNP by Caco-2 cells [6]: did not significantly inhibit the cellular uptake of JNP

COC(=O)Nc1nc2ccc(C(=O)c3cccs3)cc2[nH]1 [nocodazole]
effect of endocytosis inhibitor on uptake rate of JNP by Caco-2 cells [6]: did not significantly inhibit the cellular uptake of JNP

α-Cobrotoxin [αCT]
release of αCT in PBS [7, 14]: 67.89%
cumulative release of αCT ([7]; SGF pH 1.2, 2 h, 37 °C): approximately 40.17%
residual amount of αCT [8]: 25.60%
t1/2 of αCT ([9]; rats, intragastric): 0.17 ± 0.03 h
time of peak concentration of αCT ([9]; rats, intragastric): about 30 min
AUCt of αCT [9, 15]: 67.65 ± 17.91 ng·h/mL
AUMCt of αCT [9, 15]: 112.44 ± 12.97 ng/ml*h^2
Cmax of αCT [9, 15]: 26.85 ± 3.00 ng/mL
Tmax of αCT [9, 15]: 0.5 h
t1/2β of αCT [9, 15]: 2.69 ± 0.36 h
Ka of αCT ([10]; colon): 0.85 ± 0.14 × 10^–2 min^−1
Peff of αCT ([10]; colon): 1.34 ± 0.23 × 10^–3 cm·min^−1
Ka of αCT ([10]; duodenum): 0.81 ± 0.11 × 10^–2 min^−1
Peff of αCT ([10]; duodenum): 1.27 ± 0.19 × 10^–3 cm·min^−1
Ka of αCT ([10]; ileum): 0.91 ± 0.03 × 10^–2 min^−1
Peff of αCT ([10]; ileum): 1.44 ± 0.05 × 10^–3 cm·min^−1
Ka of αCT ([10]; jejunum): 0.98 ± 0.05 × 10^–2 min^−1
Peff of αCT ([10]; jejunum): 1.56 ± 0.10 × 10^–3 cm·min^−1
time after which αCT was no longer detected in lymph [11]: 6 h
effect on pain sensitivity ([12]; high dose 100 μg·kg^−1, intraperitoneal injection): significantly enhance pain sensitivity
effect on pain threshold and action ability ([12]; low dose, animal models): improve the pain threshold and action ability

Oc1ccc(/C=C/c2cc(O)cc(O)c2)cc1 [Res, Resveratrol]
release of Res in PBS [7, 14]: 86.71%
release rate of Res ([7]; SGF pH 1.2 with 2% sodium dodecyl sulfate, within 1 h): 93.76%
residual amount of Res [8]: 47.23%
AUC(0-t) [9, 16]: 84.6 ± 3.8 ng·h/mL
Cmax [9, 16]: 92.1 ± 8 ng/mL
MRT last [9, 16]: 1.56 ± 0.52 h
half-life [9, 16]: 1.09 ± 0.07 h
Tmax ([9]; Sprague-Dawley, rat, in vivo, po, time of peak concentration of Res, rats, intragastric): 0.167 h
AUMCt of Res ([9]; rats, intragastric, plasma Res, n = 5): 118.18 ± 19.08 ng/ml*h^2
cumulative transport of Res [3]: approximately 14%
cumulative transport [4]: approximately 6%
cumulative transport [5]: approximately 14%
Ka of Res ([10]; colon): 1.01 ± 0.26 × 10^–2 min^−1
Peff of Res ([10]; colon): 1.60 ± 0.44 × 10^–3 cm·min^−1
Ka of Res ([10]; duodenum): 0.99 ± 0.11 × 10^–2 min^−1
Peff of Res ([10]; duodenum): 1.58 ± 0.18 × 10^–3 cm·min^−1
Ka of Res ([10]; ileum): 1.91 ± 0.66 × 10^–2 min^−1
Peff of Res ([10]; ileum): 3.26 ± 1.26 × 10^–3 cm·min^−1
Ka of Res ([10]; jejunum): 1.55 ± 0.26 × 10^–2 min^−1
Peff of Res ([10]; jejunum): 2.57 ± 0.46 × 10^–3 cm·min^−1
time after which Res was no longer detected in lymph [11]: 4 h
oral bioavailability [13]: almost zero

CN(C)CCCN1c2ccccc2Sc2ccc(Cl)cc21 [chlorpromazine]
effect of endocytosis inhibitor on uptake rate of JNP by Caco-2 cells [6]: significantly reduced the uptake rate of JNP

N=C(N)NC(=O)c1nc(Cl)c(N)nc1N [amiloride]
effect of endocytosis inhibitor on uptake rate of JNP by Caco-2 cells [6]: significantly reduced the uptake rate of JNP
